From US20250205260A1, “ADJUNCTIVE TREATMENT OF MYCOBACTERIAL DISEASES” (UNIVERSITY OF SOUTHERN CALIFORNIA, priority 2022, published 2025)
Values after ≈ are worked out from the molar mass of the structure shown.

Test system: ΔtreS (TreS-deficient M. tuberculosis)
Type: cell-based, Mycobacterium tuberculosis

COc1nc2ccc(Br)cc2cc1[C@@H](c1ccccc1)[C@@](O)(CCN(C)C)c1cccc2ccccc12 [BDQ, bedaquiline]
IC95 ΔtreS: 0.21 µg/mL (≈ 0.378 µM)

NNC(=O)c1ccncc1 [INH, isoniazid]
IC95 ΔtreS: 0.12 µg/mL (≈ 0.875 µM)
